Data reported in patent US9115133B2, “Substituted fused tricyclic compounds, compositions and medicinal applications thereof” (Advinus Therapeutics Limited, priority 2011, dated 2015).

Legend:
Assay type in all cases: biochemical
Conditions in all cases: 200 μg/ml Poly Glu-Tyr (4:1), ATP 1 uM, 90 min room temperature, luminescence
[1] = target: T1, Recombinant JAK1 (Amino acids 850-1154) (Homo sapiens, UniProt P23458); assay: Kinase-Glo Luminescent Kinase Assay, recombinant JAK1
T1 construct: Recombinant JAK1 (Amino acids 850-1154; NM_002227.2); made in house; host or cells: baculovirus expression system (Bac-to-Bac)
T1 sequence (P23458 850-1154): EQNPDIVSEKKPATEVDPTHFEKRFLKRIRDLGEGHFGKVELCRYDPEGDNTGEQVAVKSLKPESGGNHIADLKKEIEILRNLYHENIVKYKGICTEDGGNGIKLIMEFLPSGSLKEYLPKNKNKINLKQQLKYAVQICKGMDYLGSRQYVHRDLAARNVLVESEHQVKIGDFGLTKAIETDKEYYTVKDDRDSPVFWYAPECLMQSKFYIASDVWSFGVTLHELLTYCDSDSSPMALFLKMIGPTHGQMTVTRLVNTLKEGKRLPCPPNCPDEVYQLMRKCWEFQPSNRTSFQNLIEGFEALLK
Outline: (§1)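 Baculovirus-expressed kinase domains were pre-incubated 5 min with compound (1% DMSO), then reacted 90 min at room temperature with 200 μg/ml poly Glu-Tyr (4:1) and 1 uM ATP in 50 mM HEPES pH 7.4, 5 mM MgCl2. Remaining ATP was read by Kinase-Glo luminescence. IC50 came from four-parameter logistic fits.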

[2] = target: T2, Recombinant JAK3 (Amino acids 781-1124) (Homo sapiens, UniProt P52333); assay: Kinase-Glo Luminescent Kinase Assay, recombinant JAK3
T2 construct: JAK3 (Amino acids 781-1124; NM_000215.3); made in house; host or cells: baculovirus expression system (Bac-to-Bac)
T2 sequence (P52333 781-1124): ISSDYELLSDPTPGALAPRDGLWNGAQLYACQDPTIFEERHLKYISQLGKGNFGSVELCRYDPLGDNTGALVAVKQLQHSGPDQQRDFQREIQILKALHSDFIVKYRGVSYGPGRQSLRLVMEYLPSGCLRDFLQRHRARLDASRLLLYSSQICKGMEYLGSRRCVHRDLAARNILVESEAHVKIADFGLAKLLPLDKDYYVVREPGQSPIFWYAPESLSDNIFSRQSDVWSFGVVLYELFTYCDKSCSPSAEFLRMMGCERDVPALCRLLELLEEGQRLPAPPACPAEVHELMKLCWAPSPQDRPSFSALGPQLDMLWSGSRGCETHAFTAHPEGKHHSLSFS
Outline: as §1

[3] = target: T3, Recombinant JAK2 (Amino acids 808-1132) (Homo sapiens, UniProt O60674); assay: Kinase-Glo Luminescent Kinase Assay, recombinant JAK2
T3 construct: JAK2 (Amino acids 808-1132; NM_004972.3); made in house; host or cells: baculovirus expression system (Bac-to-Bac)
T3 sequence (O60674 808-1132): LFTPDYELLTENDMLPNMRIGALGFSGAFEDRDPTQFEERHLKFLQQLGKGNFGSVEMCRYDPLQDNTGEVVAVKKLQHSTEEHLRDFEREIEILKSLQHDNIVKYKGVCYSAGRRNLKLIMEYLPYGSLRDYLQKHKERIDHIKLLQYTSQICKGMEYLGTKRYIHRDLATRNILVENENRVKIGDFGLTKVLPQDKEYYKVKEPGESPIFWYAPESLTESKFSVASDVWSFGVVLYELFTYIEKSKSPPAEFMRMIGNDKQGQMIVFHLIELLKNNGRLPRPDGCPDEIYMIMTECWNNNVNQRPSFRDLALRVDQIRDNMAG
Source text: Recombinant JAK1 (Amino acids 850-1154; NM_002227.2), JAK2 (Amino acids 808-1132; NM_004972.3) and JAK3 (Amino acids 781-1124; NM_000215.3) used in the studies were expressed using Invitrogen's Bac-to-Bac baculovirus expression system according to manufacturer's instructions. Adenosine 5′-triphosphate was obtained from Sigma Aldrich chemicals (Cat # A7699). Poly Glu-Tyr (4:1) sodium salt was obtained from Sigma Aldrich (Cat # P0275), Kinase Glo® Luminescent Kinase assay kit was obtained from Promega (Cat # V6713) Kinase activity was assessed by Promega Kinase-Glo® Luminescent Kinase Assay kit using 200 μg/ml Poly Glu-Tyr (4:1) as substrate and ATP at 1 uM concentration. The reactions were carried out in 384 well plates in total reaction volume of 20 uL. Reaction mixtures contained 50 mM HEPES pH 7.4, 5 mM MgCl2, 1 mM DTT, 0.01% BSA, 0.01% Tween 20. Kinase was pre-incubated with compounds or 1% DMSO for 5 min before addition of substrate and ATP to check for inhibition. Kinase reactions were carried out at room temperature for 90 min. The reactions were stopped by adding 5 μl of Kinase Glo® reagent & 10 μl of reaction mixture followed by measuring luminescence. The luminescent signal is correlated with the amount of ATP present at the end of kinase reaction and is inversely correlated with the amount of kinase activity. For each data point, % inhibition is calculated based on uninhibited reaction (without compound) which is considered as 100% activity over no enzyme or substrate controls. Dose response data is then fit using a four parameter logistic equation using Graph-pad Prism 5 software to determine inhibition constant 50 (IC50).

| Compound | IC50 [1] [nM] | IC50 [2] [nM] | IC50 [3] [nM] |
| --- | --- | --- | --- |
| CC(C)S(=O)(=O)N1CCCC(c2ccnc3cnc4[nH]ccc4c23)C1 (stereo not drawn) [Ex. 11, 9-(1-isopropylsulfonyl-3-piperidyl)-3H-pyrrolo[3,2-][1,7]naphthyridine] | > 20 | > 20 | > 20 |
| N#CCC(=O)N1CCC(c2ccnc3cnc4[nH]ccc4c23)C1 (stereo not drawn) [Ex. 14, 3-oxo-3-[3-(3H-pyrrolo[3,2-f][1,7]naphthyridin-9-yl)pyrrolidin-1-yl]propanenitrile] | 1 to 20 | > 20 | 1 to 20 |
| CCC(=O)N1CCCC(c2ncnc3cnc4[nH]ccc4c23)C1 (stereo not drawn) [Ex. 27, 1-[3-(3H-3,4,6,8-Tetraaza-cyclopenta[a]naphthalen-9-yl)-piperidin-1-yl]-propan-1-one] | > 20 | > 20 | > 20 |
| CC(C)/C(=N\C#N)N1CCC[C@@H](c2ccnc3cnc4[nH]ccc4c23)C1 [Ex. 43B, (S)(E)-[2-methyl-1-[3-(3H-pyrrolo[3,2-f][1,7]naphthyridin-9-yl)-1-piperidyl]propylidene]cyanamide] | 1 to 20 | 1 to 20 | 1 to 20 |
| N#CCC(=O)N1CCCC(c2ncnc3cnc4[nH]ccc4c23)C1 (stereo not drawn) [Ex. 23, 3-Oxo-3-[3-(3H-3,4,6,8-tetraazacyclopenta[a]naphthalen-9-yl)-piperidin-1-yl]-propionitrile] | 1 to 20 | 1 to 20 | 1 to 20 |
| O=C(CC1CC1)N1CCCC(c2ncnc3cnc4[nH]ccc4c23)C1 (stereo not drawn) [Ex. 25, 2-Cyclopropyl-1-[3-(3H-3,4,6,8-tetraazacyclopenta[a]naphthalen-9-yl)-piperidin-1-yl]-ethanone] | 1 to 20 | > 20 | > 20 |
| CC(C)CS(=O)(=O)N1CCCC(c2ncnc3cnc4[nH]ccc4c23)C1 (stereo not drawn) [Ex. 30, 9-[1-(2-Methyl-propane-1-sulfonyl)-piperidin-3-yl]-3H-3,4,6,8-tetraaza-cyclopenta[a]naphthalene] | > 20 | > 20 | > 20 |
| N#CCS(=O)(=O)N1CCN(c2ccnc3cnc4[nH]ccc4c23)CC1 [Ex. 105, 2-[4-(3H-pyrrolo[3,2-f][1,7]naphthyridin-9-yl)piperazin-1-yl]sulfonylacetonitrile] | 1 to 20 | > 20 | > 20 |
| O=S(=O)(C1CC1)N1CCCC(c2ncnc3cnc4[nH]ccc4c23)C1 (stereo not drawn) [Ex. 31, 9-(1-Cyclopropanesulfonyl-piperidin-3-yl)-3H-3,4,6,8-tetraaza-cyclopenta[a]naphthalene] | > 20 | > 20 | > 20 |
| CC(C)C(=O)N1CCCC(c2ncnc3cnc4[nH]ccc4c23)C1 (stereo not drawn) [Ex. 22, 2-Methyl-1-[3-(3H-3,4,6,8-tetraazacyclopenta[a]naphthalen-9-yl)-piperidin-1-yl]-propan-1-one] | > 20 | > 20 | > 20 |
| CC(C)CC(=O)N1CCCC(c2ncnc3cnc4[nH]ccc4c23)C1 (stereo not drawn) [Ex. 21, 3-Methyl-1-[3-(3H-3,4,6,8-tetraazacyclopenta[a]naphthalen-9-yl)-piperidin-1-yl]-butan-1-one] | > 20 | > 20 | > 20 |
| CC(C)CS(=O)(=O)N1CCC(c2ccnc3cnc4[nH]ccc4c23)C1 (stereo not drawn) [Ex. 18, 9-(1-isobutylsulfonylpyrrolidin-3-yl)-3H-pyrrolo[3,2-f][1,7]naphthyridine] | 1 to 20 | > 20 | 1 to 20 |
| c1cc(N2CCC(OCC3CC3)CC2)c2c(cnc3[nH]ccc32)n1 [Ex. 60, 9-[4-(cyclopropylmethoxy)-1-piperidyl]-3H-pyrrolo[3,2-f][1,7]naphthyridine] | > 20 | 1 to 20 | > 20 |

Second part, the molecule after the results:

| IC50 [1] [nM] | IC50 [2] [nM] | IC50 [3] [nM] | Compound |
| --- | --- | --- | --- |
| > 20 | > 20 | > 20 | O=C(NC1CCCN(c2ccnc3cnc4[nH]ccc4c23)C1)C1CC1 (stereo not drawn) [Ex. 74, N-[1-(3H-pyrrolo[3,2-f][1,7]naphthyridin-9-yl)-3-piperidyl] cyclopropanecarbox-amide] |
| 1 to 20 | 1 to 20 | 1 to 20 | O=C(CC(F)(F)F)N1CCC[C@H](c2ccnc3cnc4[nH]ccc4c23)C1 [Ex. 4A, (R)3,3,3-trifluoro-1-[3-(3H-pyrrolo[3,2-f][1,7]naphthyridin-9-yl)-1-piperidyl]propan-1-one] |
| > 20 | > 20 | > 20 | CC(C)NC(=O)C1CCCN(c2ccnc3cnc4[nH]ccc4c23)C1 (stereo not drawn) [Ex. 68, N-isopropyl-1-(3H-pyrrolo[3,2-f][1,7]naphthyridin-9-yl)piperidine-3-carboxamide] |
| 1 to 20 | > 20 | 1 to 20 | N#C/N=C(\CC(F)(F)F)N1CCCC(c2ccnc3cnc4[nH]ccc4c23)C1 (stereo not drawn) [Ex. 44, (E)-[3,3,3-trifluoro-1-[3-(3H-pyrrolo[3,2-f][1,7]naphthyridin-9-yl)-1-piperidyl]propylidene]cyanamide] |
| 1 to 20 | 1 to 20 | 1 to 20 | CN(C)C(=O)N1CCCC(c2ccnc3cnc4[nH]ccc4c23)C1 (stereo not drawn) [Ex. 47, N,N-dimethyl-3-(3H-pyrrolo[3,2-f][1,7]naphthyridin-9-yl)piperidine-1-carboxamide] |
| > 20 | > 20 | > 20 | O=C(NC1CC1)[C@@H]1CCCN(c2ccnc3cnc4[nH]ccc4c23)C1 [Ex. 61B, (3R)-N-cyclopropyl-1-(3H-pyrrolo[3,2-f][1,7]naphthyridin-9-yl)piperidine-3-carboxamide] |
| 1 to 20 | > 20 | 1 to 20 | CCS(=O)(=O)N1CCC(c2ccnc3cnc4[nH]ccc4c23)C1 (stereo not drawn) [Ex. 19, 9-(1-ethylsulfonylpyrrolidin-3-yl)-3H-pyrrolo[3,2-f][1,7]naphthyridine] |
| 1 to 20 | 1 to 20 | 1 to 20 | CS(=O)(=O)N1CCC[C@@H](c2ccnc3cnc4[nH]ccc4c23)C1 [Ex. 10B, (S)9-(1-methylsulfonyl-3-piperidyl)-3H-pyrrolo[3,2-f][1,7]naphthyridine] |
| > 20 | > 20 | > 20 | CC(C)NC(=O)N1CCCC(c2ccnc3cnc4[nH]ccc4c23)C1 (stereo not drawn) [Ex. 13, N-isopropyl-3-(3H-pyrrolo[3,2-f][1,7]naphthyridin-9-yl)piperidine-1-carboxamide] |
| 1 to 20 | > 20 | > 20 | CC(C)NC(=O)C1CCN(c2ccnc3cnc4[nH]ccc4c23)C1 (stereo not drawn) [Ex. 84, N-isopropyl-1-(3H-pyrrolo[3,2-f][1,7]naphthyridin-9-yl)pyrrolidine-3-carboxamide] |
| > 20 | > 20 | 1 to 20 | O=C(CC(F)(F)F)NC1CCCN(c2ccnc3cnc4[nH]ccc4c23)C1 (stereo not drawn) [Ex. 87, 3,3,3-trifluoro-N-[1-(3H-pyrrolo[3,2-f][1,7]naphthyridin-9-yl)-3-piperidyl] propanamide] |
| > 20 | > 20 | > 20 | O=C(CC(F)(F)F)N1CC[C@H](c2ccnc3cnc4[nH]ccc4c23)C1 [Ex. 15A, (R)3,3,3-trifluoro-1-[3-(3H-pyrrolo[3,2-f][1,7]naphthyridin-9-yl)pyrrolidin-1-yl]propan-1-one] |
| 1 to 20 | 1 to 20 | 1 to 20 | c1cc(N2CCCC(OCC3CC3)C2)c2c(cnc3[nH]ccc32)n1 (stereo not drawn) [Ex. 56, 9-[3-(cyclopropylmethoxy)-1-piperidyl]-3H pyrrolo[3,2f][1,7] naphthyridine] |
| 1 to 20 | 1 to 20 | 1 to 20 | O=S(=O)(NC1CCCN(c2ccnc3cnc4[nH]ccc4c23)C1)C(F)(F)F (stereo not drawn) [Ex. 81, 1,1,1-trifluoro-N-[1-(3H-pyrrolo[3,2-f][1,7]naphthyridin-9-yl)-3-piperidyl]methane sulfonamide] |
| > 20 | > 20 | > 20 | CN(C(=O)CC(F)(F)F)C1CCCN(c2ccnc3cnc4[nH]ccc4c23)C1 (stereo not drawn) [Ex. 65, 3,3,3-trifluoro-N-methyl-N-[1-(3H-pyrrolo[3,2-f][1,7]naphthyridin-9-yl)-3-piperidyl]propanamide] |
